This is an account of results in US20220257974A1, “PHOTOBIOMODULATION METHOD AND SYSTEM FOR INDUCING ACTIVITY OF BRAINDERIVED NERVE GROWTH FACTOR IN HIPPOCAMPAL TISSUE” (INDUSTRY ACADEMIC COOPERATION FOUNDATION KEIMYUNG UNIVERSITY, priority 2019, published 2022).

Assay [1] concerns BDNF. Description: RT-PCR of BDNF expression in HT-22 cell. To be noted: H2O2 treatment. The class given is cell-based. From the text: The used […] BDNF, forward [NT], and reverse [NT]; glutathione peroxidase (GPx), forward [NT], and reverse [NT]; superoxide dismutasee 1 (SOD1), forward [NT], and reverse [NT]; glutathione reductase (GR), forward [NT], and reverse [NT]; and h-GAPDH transfer [NT], reverse [NT]. All experiments were implemented three times.

Assay [2] relates to HT-22 cells. Description: MTT analysis of cell survival under H2O2-induced oxidative stress. In kind it is cell-based. The following applies: without LED light. The method, then:
The protection against apoptosis was analyzed using CCK-8 kit (Dojindo, Gaithersburg, Md.) and MTT as follows: HT-22 cells (5×10^5/ml) were plated on a 96-well plate and cultured in 100 µL of DMEM medium for 24 hours. Various concentrations of H2O2 were added to the cells, and the cells were cultured for 24 hours with LED irradiation of 660 nm. Then, 10 µL of MTT solution (5 mg/ml MTT in PBS) was added to each well and cultured at 37° C. for 2 hours. Absorbance was measured at 450 nm and 564 nm with a Victor multi label counter (Wallac, Turku, Finland).
The hippocampus HT-22 cell line was used to evaluate the effect of H2O2-induced oxidative stress on cell survival and apoptosis inhibitory effect by 660 nm of LED light (FIG. 2). […] In contrast, treatment with 660 nm of LED light increased cell survival rates to 88.4, 66.2, and 22.0%, respectively.

Assay [3] relates to p-ERK and p-CREB. The experiment in a line: Western blot analysis of ERK and CREB phosphorylation in HT-22 cells. In kind it is cell-based. The following applies: H2O2 treatment. The method, then:
The level of protein expression was evaluated by Western blot analysis. Cells were dissolved and centrifuged at 16,000 g. Then, the supernatant was electrophoresed at 12% SDA-PAGE and transferred to a nitrocellulose membrane. After blocking with 5% skim milk among Tween (0.05%)/PBS for 1 hour, the membrane was detected with primary antibody and a horseradish peroxidase (HRP)-conjugated antibody. The immunoreactive band was visualized using West Femto Chemi-luminescent substrate (Thermo). Protein levels were standardized with -actin expression using ChemiDOC XRS+ (Bio-Rad, Hercules, Calif., USA).

The subject of assay [4] is BDNF. The following applies: PTSD-induced mice; cited from earlier work.

With `OO` [H2O2], the BDNF expression entry in assay [1] is recorded as “reduced BDNF expression”. The cell survival rate in assay [2] (H2O2 100M) was 72.7%; in assay [2] (H2O2 300M) it was 57.3%; in assay [2] (H2O2 1000M), 20.7%. Moreover, the “p-ERK and p-CREB levels” value in assay [3] is “increased p-ERK and p-CREB levels”.

Take `CNCCC(Oc1ccc(C(F)(F)F)cc1)c1ccccc1` (stereo not drawn) [fluoxetine]: in assay [4], the “expression of BDNF and exercise ability” value is reported as “improved”.
